Measured values from publication PMC7318222, “A Family of Water‐Immiscible, Dipolar Aprotic, Diamide Solvents from Succinic Acid” (Chemsuschem, 2020).

What was measured:
human U2-OS cells = test: CALUX cytotoxicity assay; assay type: cell-based; conditions: for LEC cytotoxicity: PC20, 24 h exposure
Text: (§1) DCM ≥99.5%, chloroform ≥99.5%, DMSO ≥99.0% were purchased from VWR. N,N-diethyl-4-nitroaniline ≥98.0% was purchased from Alfa Aeser. Cyrene was supplied by Circa group. N-butylpyrrolidinone was supplied by Eastman chemicals. N,N-dimethylformamide 99.9% and N,N-dimethylacetamide 99.9% were purchased from Fischer. The flakes of Ultrason® E3020 P Polyarylethersulfone of 55,000 Da were obtained from INGE.BASF, Germany. The CALUX cell lines have been described previously.[1] They are based on human U2-OS cells (ATCC, HTB-96) stably transfected with an expression construct for the full-length human receptor under investigation, and a reporter construct consisting of multimerized responsive elements for the cognate receptor coupled to a minimal promoter element (TATA) and a luciferase gene. Cells were maintained as described previously,[2] using cell culture media and supplements from Fisher Scientific as described in the experimental procedures section. […]
(§2) In vitro reporter gene assays
(§3) The automated CALUX assays were carried out similarly as described earlier,[12] with some adaptations. In brief, the assay was performed in CO2 independent medium (Fisher Scientific, […]
(§4) supplement (Fisher Scientific, 11574466), 10 U/mL penicillin and 10 µg/mL streptomycin. A cell suspension in assay medium was made of 1 × 10^5cells/mL, and white 384-wells plates were seeded with 30 µl cell suspension/well. After 24 h, exposure medium was prepared. A dilution series in 0.5log unit increments of each test compound (in DMSO) was added to a 96-wells plate containing assay medium (2% v/v). Of this exposure mixture, 30 µl was added to the assay plates containing the CALUX cells, resulting in a final DMSO concentration of 1%. Additionally, DMSO blanks and a full dose response curve of the relevant reference compound were included on each plate. All samples were tested in triplicate. The preparation of the compound dilution series as well as the exposure of the cells were performed on a Hamilton StarLET liquid handling robot coupled to a Cytomat incubator.
(§5) Directly after exposure, plates were sealed with non-breathing plate seals (Plate sealer, easy seal transparent; Greiner-Bio-One, 676001). After 24 h the exposure medium was removed using an EL406 washer-dispenser (BioTek) and 10 µl/well triton lysisbuffer was added by the EL406.
(§6) Subsequently, the luciferase signal was measured in a luminometer (InfinitePro coupled to a Connect Stacker, both TECAN). In order to be able to detect receptor antagonism, several assays were also performed in antagonistic mode. The assay procedure was as described above, with the only exception that the EC50 concentration of the reference agonist was present during the exposure.
(§7) The luminometer data was analysed as follows; the average of the triplicate wells was determined, and the average blank (DMSO) value was subtracted. For receptor-based assays the maximum response elicited by the reference compound was set to 100% (full receptor- or pathway activation), and the other values were scaled accordingly. GraphPad Prism was used to fit a sigmoidal curve through the data (four parameters, variable slope). The PC10 concentration was reported as the lowest effect concentration (LEC), which is defined as the concentration where the response elicited by the test compound equals 10% of the maximum response of the reference compound. For antagonist- and cytotoxicity experiments, PC20 values were determined instead, which was defined as the concentration where the test compound causes a 20% decrease in the basal signal, which was […]
(§8) curve, the signal induction above background (DMSO) was determined, and the concentration where the compound elicited a 1.5-fold increase above background was used as LEC.

ERα = molecular target: T1, ERα (Homo sapiens, UniProt P03372); test: ERα CALUX reporter gene assay; assay type: cell-based; parameters: key: –: no effect observed up to the highest test concentration; conditions: PC10, 24 h exposure
T1 construct: expression construct for the full-length human receptor under investigation; expressed in transfected cells; host or cells: human U2-OS cells (ATCC HTB-96), stably transfected
T1 sequence (P03372 1-595): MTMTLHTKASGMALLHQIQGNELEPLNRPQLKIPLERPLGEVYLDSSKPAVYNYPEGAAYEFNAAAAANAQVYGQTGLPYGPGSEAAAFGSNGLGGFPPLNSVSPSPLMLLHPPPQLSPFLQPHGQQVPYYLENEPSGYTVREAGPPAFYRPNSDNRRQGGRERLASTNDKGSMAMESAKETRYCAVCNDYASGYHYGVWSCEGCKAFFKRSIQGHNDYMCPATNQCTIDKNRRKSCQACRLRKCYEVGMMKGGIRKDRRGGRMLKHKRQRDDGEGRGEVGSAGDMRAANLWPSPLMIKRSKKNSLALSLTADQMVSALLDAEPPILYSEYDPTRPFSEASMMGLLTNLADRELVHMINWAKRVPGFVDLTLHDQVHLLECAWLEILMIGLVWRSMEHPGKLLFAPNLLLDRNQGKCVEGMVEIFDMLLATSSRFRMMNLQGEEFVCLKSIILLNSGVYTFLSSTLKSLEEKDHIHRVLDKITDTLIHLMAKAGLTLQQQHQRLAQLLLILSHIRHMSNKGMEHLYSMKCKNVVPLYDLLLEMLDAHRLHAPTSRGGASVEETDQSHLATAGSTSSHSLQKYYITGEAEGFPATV
Text: Toluene ≥99.0%, hexane ≥99.5%,
as §1, §2, §3, §4, §5, §6
The luminometer data was analysed as follows; the average of the triplicate wells was determined, and the average blank (DMSO) value was subtracted. For receptor-based assays the maximum response elicited by the reference compound was set to 100% (full receptor- or pathway activation), and the other values were scaled accordingly. […] For antagonist- and cytotoxicity experiments, PC20 values were determined instead, which was defined as the concentration where the test compound causes a 20% decrease in the basal signal, which was […]
as §8

AP1 = AP1 CALUX assay (cell cycle control); assay type: cell-based, human; parameters: key: –: no effect observed up to the highest test concentration; conditions: cell signaling pathway assay, 24 h exposure
Text: Six of the CALUX assays (TCF through p53) detect activation of several cellular signaling pathways, which are indicative of general stress and acute toxicity, but also a range of more specific types of toxicity, including reproductive toxicity. […]
DCM ≥99.5%, chloroform ≥99.5%, DMSO ≥99.0% were purchased from VWR. […]
Polyarylethersulfone of 55,000 Da were obtained from INGE.BASF, Germany. The CALUX cell lines have been described previously.[1] They are based on human U2-OS cells (ATCC, HTB-96) stably transfected with an expression construct for the full-length human receptor under investigation, and a reporter construct consisting of multimerized responsive elements for the cognate receptor coupled to a minimal promoter element (TATA) and a luciferase gene. Cells were maintained as described previously,[2] using cell culture media and supplements from Fisher Scientific as described in the experimental procedures section. […]
as §2, §3, §4, §5, §6
as §7, with “The PC10 concentration was reported as the lowest effect concentration (LEC), which is defined as the concentration where the response elicited by the test compound equals 10% of the maximum response of the reference compound.” left out
as §8

| SMILES | LEC cytotoxicity (human U2-OS cells) | LEC ERα (ERα) | LEC AP1 (AP1) | cytotoxicity lowest effect concentration (LEC) (human U2-OS cells) |
| --- | --- | --- | --- | --- |
| CCCCN1CCCC1=O [NBP, N‐Butylpyrrolidinone, reference compound] | −2.1 Log M | – | – |  |
| CCCCN(CCCC)C(=O)CCC(=O)N(CCCC)CCCC [TBSA, N,N,N′,N′‐tetrabutylsuccindiamide] | −3.4 Log M | – | – |  |
| CN1CCCC1=O [NMP, N‐methyl‐2‐pyrrolidone, reference compound] | −1.4 Log M | – | −1.5 Log M | 40 mM |
| CCCCN(CC)C(=O)CCC(=O)N(CC)CCCC [EBSA, N,N′‐diethyl‐N,N′‐dibutylsuccindiamide] | −3.1 Log M | – | – |  |
| CCCCN(C)C(=O)CCC(=O)N(C)CCCC [MBSA, N,N′‐dimethyl‐N,N′‐dibutylsuccindiamide] | −2.3 Log M | – | – |  |
